From patent publication US12116370B2, “Condensed heterocyclic compound having a bridgehead nitrogen atom or salt thereof, agricultural or horticultural insecticide comprising the compound, and method for using the insecticide” (Nihon Nohyaku Co., Ltd., priority 2019, dated 2024)

What was measured:
Assay type in all cases: in vivo
Laodelphax striatellus = assay: Insecticidal test on Laodelphax striatellus; details: in Oryza sativa, 192 h, read-out: insecticidal efficacy (corrected mortality rate) activity level
Excerpt: The condensed heterocyclic compounds having a bridgehead nitrogen atom represented by the general formula (1) of the present invention or salts thereof were separately dispersed in water and diluted to 500 ppm. Rice plant seedlings (variety: Nihonbare) were dipped in the agrochemical dispersions for 30 seconds. After air-dried, each seedling was put into a separate glass test tube and inoculated with ten 3rd-instar larvae of L. striatellus, and then the glass test tubes were capped with cotton plugs. At 8 days after the inoculation, the numbers of surviving larvae and dead larvae of L. striatellus were counted, the corrected mortality rate was calculated according to the formula shown below, and the insecticidal efficacy was evaluated according to the criteria of Test Example 1.

Plutella xylostella = assay: Insecticidal test on Plutella xylostella; details: in Brassica rapa, 144 h, read-out: insecticidal efficacy (mortality rate) activity level
Excerpt: Adults of P. xylostella were released onto Chinese cabbage seedlings and allowed to lay eggs thereon. At 2 days after the release of the adults, the Chinese cabbage seedlings with laid eggs were dipped for about 30 seconds in agrochemical formulations diluted to 500 ppm, each of which contained a different kind of condensed heterocyclic compound having a bridgehead nitrogen atom represented by the general formula (1) of the present invention as an active ingredient. After air-dried, the seedlings were kept in a thermostatic chamber at 25° C. At 6 days after the dip treatment, the number of hatched larvae per plot was counted, the mortality rate of P. xylostella was calculated according to the formula shown below, and the insecticidal efficacy was evaluated according to the criteria of Test Example 1. This test was conducted in triplicate using 10 adults of P. xylostella per plot.

[1] = tested on: L1 stage larvae of H. contortus; assay: Larval motility assay on Haemonchus contortus; details: 96 h, 4 days, relative to DMSO only, read-out: percent motility inhibition
Experimental: Dimethyl sulfoxide (DMSO) diluted solutions of various compounds of the present invention were added at the final concentration of 50 ppm to the wells of a 96-well plate containing a predetermined conditioned medium. Twenty L1 stage larvae of H. contortus were introduced into each well of the 96-well plate. The plate was allowed to stand for 4 days, and then larval motility was examined. The percent motility inhibition in the wells of each treatment was calculated relative to the wells of treatment with DMSO only.

[2] = tested on: L1 stage larvae of D. immitis; assay: Larval motility assay on Dirofilaria immitis; details: 72 h, 3 days, relative to DMSO only, read-out: percent motility inhibition
Experimental: Five hundred L1 stage larvae of D. immitis were diluted in a predetermined conditioned medium and introduced into each well of a 96-well plate. DMSO diluted solutions of various compounds of the present invention were added at the final concentration of 50 ppm to the wells of the 96-well plate. The plate was allowed to stand for 3 days, and then larval motility was examined. The percent motility inhibition in the wells of each treatment was calculated relative to the wells of treatment with DMSO only.

[3] = tested on: adults of Ctenocephalides felis; assay: Assay for oral parasiticidal activity against adults of Ctenocephalides felis; details: read-out: mortality rate
Experimental: Newly-emerged adults of C. felis were placed into test cages (10 adults per test cage). DMSO diluted solutions of various compounds of the present invention were added to aliquots of bovine blood at the final concentration of 50 ppm and orally administered to the adults of C. felis using a feeder. The mortality rate was examined on the following day. Aberrant adults were regarded as the dead.

Compound | mortality at 500 ppm (Laodelphax striatellus) [%] | mortality at 500 ppm (Plutella xylostella) [%] | inhibition at 50 ppm [1] [%] | inhibition at 50 ppm [2] [%] | mortality at 50 ppm [3] [%]
CCS(=O)(=O)c1cc(/C(=N/OCCSC)c2ccccc2)cnc1-c1nc2cc(C(F)(F)F)ccn2n1 [Compound 3-46, (5-ethylsulfonyl-6-(7-trifluoromethyl-[1,2,4]triazolo[1,5-a]pyridin-2-yl)pyridin-3-yl)phenylmethanone O-(2-methylthioethyl)oxime] | 100 | 100 |  |  | 
CCS(=O)(=O)c1cc(/C(=N/OCCSC)OC)cnc1-c1nc2cc(C(F)(F)F)ccn2n1 [Compound 3-1, methyl 5-ethylsulfonyl-N-(2-methylthioethoxy)-6-(7-(trifluoromethyl)-[1,2,4]triazolo[1,5-a]pyridin-2-yl)nicotinimidate] | 100 | 100 |  |  | 
CCS(=O)(=O)c1cc(/C(Br)=N/OCCSC)cnc1-c1nc2cc(C(F)(F)F)ccn2n1 [Compound 3-19, 5-ethylsulfonyl-N-(2-methylthioethoxy)-6-(7-trifluoromethyl-[1,2,4]triazolo[1,5-a]pyridin-2-yl)nicotinimidoyl bromide] | 100 | 100 |  |  | 
CCS(=O)(=O)c1cc(/C=N/OCC(F)F)cnc1-c1nc2cc(C(F)(F)F)ccn2n1 [Compound 1-7] | 100 | 100 | ≥ 50 | ≥ 50 | ≥ 50
CCS(=O)(=O)c1cc(/C(=N/OCCSC)C2CC2)cnc1-c1nc2cc(C(F)(F)F)ccn2n1 [Compound 3-28] | 100 | 100 |  |  | 
CCS(=O)(=O)c1ccc(/C=N/OCC(F)(F)F)nc1-c1nc2cc(C(F)(F)C(F)(F)F)ncn2n1 [Compound 2-42, 5-ethylsulfonyl-6-(7-pentafluoroethyl-[1,2,4]triazolo[1,5-c]pyridin-2-yl)picolinaldehyde O-(2,2,2-trifluoroethyl)oxime] | 100 | 100 |  |  | 
